This note sets out measurements from ChEMBL document CHEMBL1125949, “Synthesis and biological evaluation of 3-amino-2-(4-chlorophenyl)1,1-difluoropropyl phosphonic acid” (Bioorg Med Chem Lett, 1991).

The species entered for this assay is Rattus norvegicus. Nature of the assay: GABA-B agonistic activity in rat anococcygeus. The assay is classed as functional.

Broadly, the EC50 is the midpoint of the concentration-response curve. Low readings indicate an effect from little substance, high ones a need for much substance.

Structures are written as SMILES.

Turning to `NCC(c1ccc(Cl)cc1)C(F)(F)P(=O)(O)O` (stereo unspecified), the half-maximal effective concentration (EC50) was about 300 µM.
